# Experimental data reported in US6753424B1, “Conjugates of DNA interacting groups with steroid hormones for use as nucleic acid transfection agents” (priority 1998, dated 2004).
# What was measured:
# [1] = tested on: GR-GFP chimera; test: Nuclear Transfer Induction assay (NTI), monourethane ligands, HeLa cells; type: cell-based; settings: 1 hr
# Experimental: Conditions: HeLa cells are transiently transfected by CaPO4 with an expression vector encoding a GR-GFP chimera (5 μg in transfection cocktail, 4 cm diameter dishes, DMEM with 3% FCS). After 24 hour expression, ligand is added for 1 hr and cells are fixed with formaldehyde (5 min 4° C.) and inspected by fluorescence microscopy. Fluorescent cells are counted and divided into different classes according to ‘cytoplasmic’ (C) versus ‘nuclear’ (N) localisation of fluorescence.
# First column: “Conditions”: Name of compounds added (marked at top: ‘//ligand’), and their concentration (in parentheses) and assay number (01 through 21).
# Values are given as percentage of cells displaying the corresponding localisatidn, within each tested condition the sum is 100%.
# [2] = tested on: GR-GFP chimera; test: Nuclear Transfer Induction assay (NTI), diurethane ligands, CV-1 cells; type: cell-based; settings: 4 hr
# Experimental: Conditions: CV-1 cells are transiently transfected with DOTAP (Boehringer-Mannheim) with an expression vector encoding a GR-GFP chimera (see 8.1). After 36 hours expression, ligand is added for 4 hr and cells are fixed and counted as given in 8.1.
# [3] = tested on: HUH-7 cells; test: Transfection enhancement, CMV-LacZ reporter, HUH-7 cells; type: cell-based, human; set-up: key to net: net = (RLU:protein)×1000 − 600 (mock transfection level)
# Experimental: Conditions: HUH-7 cells are human hepatoma cells that contain substantial amounts of glucocorticoid receptor. The cells are transfected with an expression vector that is constitutively expressing the reporter gene LacZ (CMV-LacZ). Transfection conditions and analysis of LacZ reporter are the same as described in Example 7 legend. Transfection is performed O/N and after rinsing of the precipitate the cells are further incubated for 24 hours. LacZ levels are determined from cell extracts with a chemiluminescence LacZ enzyme assay (Galactolight plus, Tropix). The relative luminescence from each extract is given. Each value represents an individual extract. “Induction”: relative reporter gene activity (values divided by value of assay in lane 9, true negative control for DNA liganding). rel/RLU=(RLU:protein)×1000; net=rel/RLU−600 (600=rel/RLU value approximately corresponding to rel/RLU value of mock transfection).
SMILES,"C < N, percentage of cells ([1]; ligand 1.10-6M)","C << N, percentage of cells ([1]; ligand 1.10-6M)","C = N, percentage of cells ([1]; ligand 1.10-6M)","C > N, percentage of cells ([1]; ligand 1.10-6M)","C >> N, percentage of cells ([1]; ligand 1.10-6M)","C < N, percentage of cells ([1]; ligand 1.10-7M)","C << N, percentage of cells ([1]; ligand 1.10-7M)","C = N, percentage of cells ([1]; ligand 1.10-7M)","C > N, percentage of cells ([1]; ligand 1.10-7M)","C >> N, percentage of cells ([1]; ligand 1.10-7M)","C < N, percentage of cells ([2]; ligand 5.10-6M)","C << N, percentage of cells ([2]; ligand 5.10-6M)","C = N, percentage of cells ([2]; ligand 5.10-6M)","C > N, percentage of cells ([2]; ligand 5.10-6M)","C >> N, percentage of cells ([2]; ligand 5.10-6M)","C < N, percentage of cells ([2]; ligand 5.10-7M)","C << N, percentage of cells ([2]; ligand 5.10-7M)","C = N, percentage of cells ([2]; ligand 5.10-7M)","C > N, percentage of cells ([2]; ligand 5.10-7M)","C >> N, percentage of cells ([2]; ligand 5.10-7M)",also measured
"COC(=O)CCNC(=O)OCC(=O)[C@@]1(O)CCC2C3CCC4=CC(=O)CCC4(C)C3C(O)CC21C (stereo partly shown) [CL-C3-COOCH3, 2-carboxymethyl-ethyl-1-carboxamicacid-cortisol-21-ester]",55%,42%,2%,1%,0%,50%,18%,21%,1%,0%,–,–,–,–,–,–,–,–,–,–,–
"CC12CCC(=O)C=C1CCC1C2C(O)CC2(C)C1CC[C@]2(O)C(=O)COC(=O)NCCC(=O)O (stereo partly shown) [CL-C3-COOH, 2-carboxy-ethyl-1-carboxamicacid-cortisol-21-ester]",13%,0%,85%,2%,0%,2%,0%,43%,55%,0%,–,–,–,–,–,–,–,–,–,–,–
"COC(=O)CCCCCCCCCCNC(=O)OCC(=O)[C@@]1(O)CCC2C3CCC4=CC(=O)CCC4(C)C3C(O)CC21C (stereo partly shown) [CL-C11-COOCH3, 10-carboxymethyl-n-decy-1-carboxamicacid-cortisol-21-ester]",60%,13%,24%,3%,0%,20%,0%,55%,20%,5%,–,–,–,–,–,–,–,–,–,–,–
"C[C@@H]1C[C@H]2[C@@H]3CCC4=CC(=O)C=C[C@]4(C)[C@@]3(F)[C@@H](O)C[C@]2(C)[C@@]1(O)C(=O)CO [DEX, Dexamethasone, reference compound]",29%,71%,0%,0%,0%,30%,67%,3%,0%,0%,0.5%,99.5%,0%,0%,0%,1%,99%,0%,0%,0%,"C < N, percentage of cells ([2]; ligand 5.10-8M): 5%; C << N, percentage of cells ([2]; ligand 5.10-8M): 95%; C = N, percentage of cells ([2]; ligand 5.10-8M): 0%; C > N, percentage of cells ([2]; ligand 5.10-8M): 0%; C >> N, percentage of cells ([2]; ligand 5.10-8M): 0%; C < N, percentage of cells ([2]; ligand 5.10-9M): 42.1%; C << N, percentage of cells ([2]; ligand 5.10-9M): 57.5%; C = N, percentage of cells ([2]; ligand 5.10-9M): 0.3%; C > N, percentage of cells ([2]; ligand 5.10-9M): 0%; C >> N, percentage of cells ([2]; ligand 5.10-9M): 0%; RLU ([3]; ligand 10-6, HUH-7): 238837; net ([3]; ligand 10-6, HUH-7): 185; rel/RLU ([3]; ligand 10-6, HUH-7): 314.7; net ([3]; ligand 10-7, HUH-7): 227; rel/RLU ([3]; ligand 10-7, HUH-7): 357.3"
"COC(=O)CCNC(=O)OCC(=O)[C@@]1(O)[C@H](C)CC2C3CCC4=CC(=O)C=CC4(C)[C@@]3(F)C(O)CC21C (stereo partly shown) [DEX-C3-COOCH3, 2-carboxymethyl-ethyl-1-carboxamicacid-dexamethasone-21-ester]",–,–,–,–,–,25%,75%,0%,0%,0%,–,–,–,–,–,–,–,–,–,–,"C < N, percentage of cells ([1]; ligand 1.10-8M): 22%; C << N, percentage of cells ([1]; ligand 1.10-8M): 78%; C = N, percentage of cells ([1]; ligand 1.10-8M): 0%; C > N, percentage of cells ([1]; ligand 1.10-8M): 0%; C >> N, percentage of cells ([1]; ligand 1.10-8M): 0%"
CC1CC2C3CCC4=CC(=O)C=CC4(C)C3(F)C(O)CC2(C)C1(O)C(=O)COC(=O)NCCOC(=O)NCCCNCCCCNCCCN (stereo not shown) [DEX-C4-Sn],–,–,–,–,–,–,–,–,–,–,27.6%,69.5%,2.9%,0%,0%,4.6%,0.6%,67.4%,15.4%,12%,"C < N, percentage of cells ([2]; ligand 5.10-8M): 1.1%; C << N, percentage of cells ([2]; ligand 5.10-8M): 0%; C = N, percentage of cells ([2]; ligand 5.10-8M): 43.3%; C > N, percentage of cells ([2]; ligand 5.10-8M): 35.8%; C >> N, percentage of cells ([2]; ligand 5.10-8M): 19.8%; C < N, percentage of cells ([2]; ligand 5.10-9M): 0%; C << N, percentage of cells ([2]; ligand 5.10-9M): 0%; C = N, percentage of cells ([2]; ligand 5.10-9M): 28.5%; C > N, percentage of cells ([2]; ligand 5.10-9M): 43.8%; C >> N, percentage of cells ([2]; ligand 5.10-9M): 27.7%"
Cc1oc2c(C)c3oc(=O)cc(C)c3cc2c1CNC(=O)OCCCCCCNC(=O)OCC(=O)[C@@]1(O)[C@H](C)CC2C3CCC4=CC(=O)C=CC4(C)[C@@]3(F)C(O)CC21C (stereo partly shown) [DEX-C6-Pso],–,–,–,–,–,–,–,–,–,–,10%,90%,0%,0%,0%,6%,94%,0%,0%,0%,"C < N, percentage of cells ([2]; ligand 5.10-8M): 29.4%; C << N, percentage of cells ([2]; ligand 5.10-8M): 60.8%; C = N, percentage of cells ([2]; ligand 5.10-8M): 9.8%; C > N, percentage of cells ([2]; ligand 5.10-8M): 0%; C >> N, percentage of cells ([2]; ligand 5.10-8M): 0%; C < N, percentage of cells ([2]; ligand 5.10-9M): 38.3%; C << N, percentage of cells ([2]; ligand 5.10-9M): 22.6%; C = N, percentage of cells ([2]; ligand 5.10-9M): 35.7%; C > N, percentage of cells ([2]; ligand 5.10-9M): 3.5%; C >> N, percentage of cells ([2]; ligand 5.10-9M): 0%"
"COC(=O)CCCCCCCCCCNC(=O)OCC(=O)[C@@]1(O)[C@H](C)CC2C3CCC4=CC(=O)C=CC4(C)[C@@]3(F)C(O)CC21C (stereo partly shown) [DEX-C11-COOCH3, 10-carboxymethyl-n-decyl-1-carboxamicacid-dexamethasone-21-ester]",50%,45%,5%,0%,0%,61%,7%,29%,3%,0%,–,–,–,–,–,–,–,–,–,–,–
Cc1oc2c(C)c3oc(=O)cc(C)c3cc2c1CNC(=O)OCCCCCCCCCCCNC(=O)OCC(=O)[C@@]1(O)[C@H](C)CC2C3CCC4=CC(=O)C=CC4(C)[C@@]3(F)C(O)CC21C (stereo partly shown) [DEX-C11-Pso],–,–,–,–,–,–,–,–,–,–,53.1%,45%,1.9%,0%,0%,14.8%,0%,58.3%,25.7%,1.3%,"C < N, percentage of cells ([2]; ligand 5.10-8M): 1.9%; C << N, percentage of cells ([2]; ligand 5.10-8M): 0%; C = N, percentage of cells ([2]; ligand 5.10-8M): 52.9%; C > N, percentage of cells ([2]; ligand 5.10-8M): 37.1%; C >> N, percentage of cells ([2]; ligand 5.10-8M): 8.1%; C < N, percentage of cells ([2]; ligand 5.10-9M): 3.6%; C << N, percentage of cells ([2]; ligand 5.10-9M): 0%; C = N, percentage of cells ([2]; ligand 5.10-9M): 34.2%; C > N, percentage of cells ([2]; ligand 5.10-9M): 52.9%; C >> N, percentage of cells ([2]; ligand 5.10-9M): 9.4%"
